Data as given in EP4722207A1, “OXOISOINDOLINYL-SUBSTITUTED TETRAHYDROPYRIMIDINEDIONE DERIVATIVE AND USE THEREOF” (Gluetacs Therapeutics (Shanghai) Co., Ltd., priority 2023, dated 2024).

Legend:
[1] = target: T1, GSPT1 (Homo sapiens, UniProt P15170+Q96SW2); assay: Western-blot assay, substrate protein degradation in hPBMCs: GSPT1; assay type: cell-based; details: 24 hours of compound treatment, 50 nM and 500 nM
T1 construct: effects of the compounds of the present disclosure on the expression of target proteins in cells; endogenous in cells; host or cells: human PBMCs (hPBMCs)
T1 sequence (P15170 whole entry): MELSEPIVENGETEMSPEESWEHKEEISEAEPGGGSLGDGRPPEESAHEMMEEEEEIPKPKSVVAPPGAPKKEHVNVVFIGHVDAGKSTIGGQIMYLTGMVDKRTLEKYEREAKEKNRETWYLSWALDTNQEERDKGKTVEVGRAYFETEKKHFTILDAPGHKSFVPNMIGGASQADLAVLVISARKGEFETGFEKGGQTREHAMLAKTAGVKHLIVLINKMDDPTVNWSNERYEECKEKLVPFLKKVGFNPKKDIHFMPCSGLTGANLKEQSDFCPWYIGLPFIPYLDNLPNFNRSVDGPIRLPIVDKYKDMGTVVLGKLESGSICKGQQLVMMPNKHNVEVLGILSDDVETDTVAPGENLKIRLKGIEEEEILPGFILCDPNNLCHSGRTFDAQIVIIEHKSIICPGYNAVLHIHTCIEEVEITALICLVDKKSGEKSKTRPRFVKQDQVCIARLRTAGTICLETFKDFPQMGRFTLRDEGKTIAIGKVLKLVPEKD
T1 sequence (Q96SW2 whole entry): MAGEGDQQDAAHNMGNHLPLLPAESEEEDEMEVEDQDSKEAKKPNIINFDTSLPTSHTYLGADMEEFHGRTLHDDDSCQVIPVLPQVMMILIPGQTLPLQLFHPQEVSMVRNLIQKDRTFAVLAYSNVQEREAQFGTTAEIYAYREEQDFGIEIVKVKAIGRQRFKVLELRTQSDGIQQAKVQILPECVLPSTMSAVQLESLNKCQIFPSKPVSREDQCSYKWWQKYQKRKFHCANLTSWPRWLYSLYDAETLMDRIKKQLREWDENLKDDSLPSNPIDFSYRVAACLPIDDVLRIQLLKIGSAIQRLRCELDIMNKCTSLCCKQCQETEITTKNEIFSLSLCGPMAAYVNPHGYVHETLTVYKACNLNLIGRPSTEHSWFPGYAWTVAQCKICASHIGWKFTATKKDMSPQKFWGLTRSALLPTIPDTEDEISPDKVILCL
T1 sequence (Q16531 whole entry partner): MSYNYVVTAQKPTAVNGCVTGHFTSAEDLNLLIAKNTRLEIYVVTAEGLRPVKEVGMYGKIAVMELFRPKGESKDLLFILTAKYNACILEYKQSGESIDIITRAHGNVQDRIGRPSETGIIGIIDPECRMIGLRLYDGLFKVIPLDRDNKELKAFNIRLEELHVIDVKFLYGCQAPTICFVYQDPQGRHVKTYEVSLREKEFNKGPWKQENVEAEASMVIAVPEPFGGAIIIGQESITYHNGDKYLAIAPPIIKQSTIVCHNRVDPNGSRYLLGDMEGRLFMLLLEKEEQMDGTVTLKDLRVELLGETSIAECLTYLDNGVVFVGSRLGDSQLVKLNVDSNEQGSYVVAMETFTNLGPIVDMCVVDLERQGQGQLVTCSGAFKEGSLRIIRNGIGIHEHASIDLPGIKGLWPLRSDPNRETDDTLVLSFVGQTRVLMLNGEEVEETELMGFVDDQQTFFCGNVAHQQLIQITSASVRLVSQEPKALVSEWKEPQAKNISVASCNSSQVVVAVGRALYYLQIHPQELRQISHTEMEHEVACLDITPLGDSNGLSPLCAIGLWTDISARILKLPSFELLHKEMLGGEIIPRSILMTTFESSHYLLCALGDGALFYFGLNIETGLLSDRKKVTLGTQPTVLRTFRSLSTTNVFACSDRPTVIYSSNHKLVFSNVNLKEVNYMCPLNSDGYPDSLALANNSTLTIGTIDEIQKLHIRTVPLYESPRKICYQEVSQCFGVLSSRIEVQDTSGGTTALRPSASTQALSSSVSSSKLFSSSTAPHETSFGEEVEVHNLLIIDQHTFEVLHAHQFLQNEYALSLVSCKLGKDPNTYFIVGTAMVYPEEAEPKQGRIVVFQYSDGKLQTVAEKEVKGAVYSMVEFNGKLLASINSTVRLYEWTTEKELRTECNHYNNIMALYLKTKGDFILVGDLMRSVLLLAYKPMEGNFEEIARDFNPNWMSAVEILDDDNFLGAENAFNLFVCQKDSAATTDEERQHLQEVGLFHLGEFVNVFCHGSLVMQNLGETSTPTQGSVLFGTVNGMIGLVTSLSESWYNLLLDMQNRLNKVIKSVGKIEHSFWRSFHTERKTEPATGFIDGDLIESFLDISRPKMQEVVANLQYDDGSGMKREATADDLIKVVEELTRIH

[2] = target: T2, WEE1 (Homo sapiens, UniProt P30291+Q96SW2); assay: Western-blot assay, substrate protein degradation in hPBMCs: WEE1; assay type: cell-based; details: 24 hours of compound treatment, 50 nM and 500 nM
T2 construct: effects of the compounds of the present disclosure on the expression of target proteins in cells; endogenous in cells; host or cells: human PBMCs (hPBMCs)
T2 sequence (P30291 whole entry): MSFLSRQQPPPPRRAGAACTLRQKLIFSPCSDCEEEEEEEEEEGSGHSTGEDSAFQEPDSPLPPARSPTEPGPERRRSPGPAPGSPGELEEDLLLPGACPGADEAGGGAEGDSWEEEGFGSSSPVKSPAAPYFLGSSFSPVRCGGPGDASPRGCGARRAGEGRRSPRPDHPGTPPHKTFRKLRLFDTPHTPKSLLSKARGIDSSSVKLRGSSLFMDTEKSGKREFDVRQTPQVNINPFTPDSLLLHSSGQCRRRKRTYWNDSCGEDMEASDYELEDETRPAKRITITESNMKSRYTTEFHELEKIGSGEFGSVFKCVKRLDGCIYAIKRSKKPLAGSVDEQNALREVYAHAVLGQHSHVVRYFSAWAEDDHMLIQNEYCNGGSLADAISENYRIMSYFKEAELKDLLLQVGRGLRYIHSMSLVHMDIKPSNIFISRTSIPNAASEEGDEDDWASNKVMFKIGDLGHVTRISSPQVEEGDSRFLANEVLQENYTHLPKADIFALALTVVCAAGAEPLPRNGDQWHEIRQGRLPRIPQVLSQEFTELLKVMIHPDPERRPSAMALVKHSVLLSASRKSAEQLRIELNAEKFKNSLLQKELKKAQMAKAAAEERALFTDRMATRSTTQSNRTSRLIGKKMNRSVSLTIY
T2 sequence (Q96SW2 whole entry): as the sequence (Q96SW2 whole entry) above
T2 sequence (Q16531 whole entry partner): as the sequence (Q16531 whole entry partner) above

[3] = system: MDA-MB-231; assay: Cell viability assay (CellTiter-Meiluncell Luminescent), tumor cell proliferation, MDA-MB-231; details: Homo sapiens, MDA-MB-231, 96 h; for inhibition at 0.01 µM: read-out: Inhibition Rate at 10 nM (%); for inhibition at 0.5 µM: read-out: Inhibition Rate at 500 nM (%)
[4] = target: T3, IKZF3 (Homo sapiens, UniProt Q96SW2+Q9UKT9); assay: Western-blot assay, substrate protein degradation in hPBMCs: IKZF3; assay type: cell-based; details: 24 hours of compound treatment, 50 nM and 500 nM
T3 construct: effects of the compounds of the present disclosure on the expression of target proteins in cells; endogenous in cells; host or cells: human PBMCs (hPBMCs)

[5] = system: MV-4-11; assay: Cell viability assay (CellTiter-Meiluncell Luminescent), tumor cell proliferation, MV-4-11; details: Homo sapiens, MV4-11, 96 h; for inhibition at 0.01 µM: read-out: Inhibition Rate at 10 nM (%); for inhibition at 0.5 µM: read-out: Inhibition Rate at 500 nM (%)
[6] = target: T4, IKZF2 (Homo sapiens, UniProt Q96SW2+Q9UKS7); assay: Western-blot assay, substrate protein degradation in hPBMCs: IKZF2; assay type: cell-based; details: 24 hours of compound treatment, 50 nM and 500 nM
T4 construct: effects of the compounds of the present disclosure on the expression of target proteins in cells; endogenous in cells; host or cells: human PBMCs (hPBMCs)
T4 sequence (Q9UKS7 whole entry): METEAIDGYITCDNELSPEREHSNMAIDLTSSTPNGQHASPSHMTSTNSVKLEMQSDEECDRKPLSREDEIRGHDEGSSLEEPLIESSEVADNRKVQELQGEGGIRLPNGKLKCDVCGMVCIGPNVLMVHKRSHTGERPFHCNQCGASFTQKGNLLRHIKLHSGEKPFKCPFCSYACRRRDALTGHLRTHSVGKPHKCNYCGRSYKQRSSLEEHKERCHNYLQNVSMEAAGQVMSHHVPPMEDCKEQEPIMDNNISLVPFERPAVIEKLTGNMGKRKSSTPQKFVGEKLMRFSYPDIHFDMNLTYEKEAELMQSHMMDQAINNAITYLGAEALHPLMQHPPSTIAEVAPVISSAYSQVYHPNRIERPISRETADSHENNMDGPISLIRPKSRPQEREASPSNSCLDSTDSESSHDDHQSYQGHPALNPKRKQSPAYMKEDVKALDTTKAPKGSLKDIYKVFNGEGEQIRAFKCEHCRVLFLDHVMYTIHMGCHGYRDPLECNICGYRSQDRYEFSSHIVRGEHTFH
T4 sequence (Q96SW2 whole entry): as the sequence (Q96SW2 whole entry) above
T4 sequence (Q16531 whole entry partner): as the sequence (Q16531 whole entry partner) above

[7] = target: T5, IKZF1 (Homo sapiens, UniProt Q13422+Q96SW2); assay: Western-blot assay, substrate protein degradation in hPBMCs: IKZF1; assay type: cell-based; details: 24 hours of compound treatment, 50 nM and 500 nM
T5 construct: effects of the compounds of the present disclosure on the expression of target proteins in cells; endogenous in cells; host or cells: human PBMCs (hPBMCs)
T5 sequence (Q13422 whole entry): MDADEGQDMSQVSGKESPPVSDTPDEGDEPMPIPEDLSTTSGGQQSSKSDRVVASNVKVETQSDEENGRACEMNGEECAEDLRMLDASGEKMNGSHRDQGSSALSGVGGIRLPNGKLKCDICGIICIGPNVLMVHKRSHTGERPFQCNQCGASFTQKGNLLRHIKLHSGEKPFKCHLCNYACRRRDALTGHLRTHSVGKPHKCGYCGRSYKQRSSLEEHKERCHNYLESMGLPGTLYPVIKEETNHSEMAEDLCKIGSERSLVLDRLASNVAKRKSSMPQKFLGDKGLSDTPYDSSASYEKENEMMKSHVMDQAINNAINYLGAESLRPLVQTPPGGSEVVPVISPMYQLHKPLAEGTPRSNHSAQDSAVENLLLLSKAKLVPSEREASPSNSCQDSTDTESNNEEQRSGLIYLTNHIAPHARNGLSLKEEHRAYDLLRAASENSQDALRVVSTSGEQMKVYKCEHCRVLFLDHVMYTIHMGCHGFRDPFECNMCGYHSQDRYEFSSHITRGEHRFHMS
T5 sequence (Q96SW2 whole entry): as the sequence (Q96SW2 whole entry) above
T5 sequence (Q16531 whole entry partner): as the sequence (Q16531 whole entry partner) above

[8] = system: H292; assay: Cell viability assay (CellTiter-Meiluncell Luminescent), tumor cell proliferation, H292; details: Homo sapiens, NCI-H292, 96 h; for inhibition at 0.01 µM: read-out: Inhibition Rate at 10 nM (%); for inhibition at 0.5 µM: read-out: Inhibition Rate at 500 nM (%)
Procedure: (§1) The tumor cells used herein were cultured in a cell culture medium listed in table 2 at 37°C in an incubator with 5% CO2. Prior to experimentation, all cell lines used were correctly identified by STR profiling, and tested negative for mycoplasma contamination using a mycoplasma detection kit through routine screenings.
(§2) On the following day, the test compounds of the present disclosure were subjected to serial dilution. […] Subsequently, 0.5 µL of the test compound dilution was transferred into the 96-well plate containing the cells, with each well containing 100 µL of cell culture medium. […] Into the 96-well plate, the diluted test compounds and corresponding detection reagents were added, resulting in final test compound concentrations of 500 nM and 10 nM, respectively. The experimental procedure is described below using the diluted 2 µM test compound as an example.
(§3) After the cells were treated with the compounds of the present disclosure for a specified period, the cell viability assay reagent was added to the culture medium according to the kit's instructions to determine cell viability. […] All controls were treated using the same procedure as the compounds of the present disclosure. The growth inhibition curves for the compounds of the present disclosure were plotted using Prism GraphPad software, and the IC50 values were calculated therefrom.

[9] = target: T6, CK1α (Homo sapiens, UniProt P48729+Q96SW2); assay: Western-blot assay, substrate protein degradation in hPBMCs: CK1α; assay type: cell-based; details: 24 hours of compound treatment, 50 nM and 500 nM
T6 construct: effects of the compounds of the present disclosure on the expression of target proteins in cells; endogenous in cells; host or cells: human PBMCs (hPBMCs)
T6 sequence (P48729 whole entry): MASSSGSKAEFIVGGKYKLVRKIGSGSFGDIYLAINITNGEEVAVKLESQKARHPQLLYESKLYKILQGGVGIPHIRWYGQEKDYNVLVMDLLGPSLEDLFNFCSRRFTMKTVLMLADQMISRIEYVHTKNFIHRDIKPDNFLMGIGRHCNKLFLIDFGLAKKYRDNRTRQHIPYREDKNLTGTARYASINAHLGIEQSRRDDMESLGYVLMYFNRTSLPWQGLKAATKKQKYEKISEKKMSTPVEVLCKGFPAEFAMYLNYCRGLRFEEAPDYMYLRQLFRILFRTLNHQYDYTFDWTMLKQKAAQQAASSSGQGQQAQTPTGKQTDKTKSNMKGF
T6 sequence (Q96SW2 whole entry): as the sequence (Q96SW2 whole entry) above
T6 sequence (Q16531 whole entry partner): as the sequence (Q16531 whole entry partner) above

[10] = system: H2228; assay: Cell viability assay (CellTiter-Meiluncell Luminescent), tumor cell proliferation, H2228; details: Homo sapiens, NCI-H2228, 96 h; for inhibition at 0.01 µM: read-out: Inhibition Rate at 10 nM (%); for inhibition at 0.5 µM: read-out: Inhibition Rate at 500 nM (%)
Procedure: as §1, §2, §3

Row | SMILES | substrate protein remaining % GSPT1 [1] | substrate protein remaining % WEE1 [2] | inhibition at 0.01 µM [3] [%] | inhibition at 0.5 µM [3] [%] | substrate protein remaining % IKZF3 [4] | inhibition at 0.01 µM [5] [%] | inhibition at 0.5 µM [5] [%] | substrate protein remaining % IKZF2 [6] | substrate protein remaining % IKZF1 [7] | inhibition at 0.01 µM [8] [%] | inhibition at 0.5 µM [8] [%] | substrate protein remaining % CK1α [9] | inhibition at 0.01 µM [10] [%] | inhibition at 0.5 µM [10] [%]
1 | O=C1CCN(N2Cc3cc(CN4CCC(c5ncnc6sccc56)CC4)ccc3C2=O)C(=O)N1 [GT-08082, 1-(1-oxo-5-((4-(thieno[2,3-d]pyrimidin-4-yl)piperidin-1-yl)methyl)isoindolin-2-yl)dihydropyrimidine-2,4(1H,3H)-dione] | A (0% ≤ substrate protein remaining % ≤ 80%) | A (0% ≤ substrate protein remaining % ≤ 80%) | 25 to 40 | 18 to 25 | B (80%< substrate protein remaining %≤ 100%) | 40 to 60 | 40 to 60 | B (80%< substrate protein remaining %≤ 100%) | B (80%< substrate protein remaining %≤ 100%) | 20 to 40 | 20 to 40 | A (0% ≤ substrate protein remaining % ≤ 80%) | 25 to 30 | 20 to 25
2 | Cc1sc2ncnc(C3CCN(Cc4ccc5c(c4)CN(N4CCC(=O)NC4=O)C5=O)CC3)c2c1C [GT-08084, 1-(5-((4-(5,6-dimethylthieno[2,3-d]pyrimidin-4-yl)piperidin-1-yl)methyl)-1-oxoisoindolin-2-yl)dihydropyrimidine-2,4(1H,3H)-dione] | A (0% ≤ substrate protein remaining % ≤ 80%) | B (80%< substrate protein remaining %≤ 100%) | 5 to 10 | 18 to 25 | B (80%< substrate protein remaining %≤ 100%) | 18 to 25 | 10 to 18 | B (80%< substrate protein remaining %≤ 100%) | B (80%< substrate protein remaining %≤ 100%) | 1 to 5 | 10 to 15 | A (0% ≤ substrate protein remaining % ≤ 80%) | 10 to 15 | 25 to 30
3 | O=C1CCN(N2C(=O)c3ccc(CN4CCN(c5ncnc6sc(Br)cc56)CC4)cc3C2=O)C(=O)N1 [GT-08096, 5-((4-(6-bromothieno[2,3-d]pyrimidin-4-yl)piperazin-1-yl)methyl)-2-(2,4-dioxotetrahydropyrimidin-1(2H)-yl)isoindoline-1,3-dione] | A (0% ≤ substrate protein remaining % ≤ 80%) | A (0% ≤ substrate protein remaining % ≤ 80%) | 25 to 40 | 18 to 25 | B (80%< substrate protein remaining %≤ 100%) | 30 to 40 | 30 to 40 | B (80%< substrate protein remaining %≤ 100%) | B (80%< substrate protein remaining %≤ 100%) | 40 to 60 | 20 to 40 | A (0% ≤ substrate protein remaining % ≤ 80%) | 30 to 40 | 20 to 25
4 | Cc1nc(N2CCN(Cc3ccc4c(c3)C(=O)N(N3CCC(=O)NC3=O)C4=O)CC2)c2c(-c3ccccc3)csc2n1 [GT-08099, 2-(2,4-dioxotetrahydropyrimidin-1(2H)-yl)-5-((4-(2-methyl-5-phenylthieno[2,3-d]pyrimidin-4-yl)piperazin-1-yl)methyl)isoindoline-1,3-dione] | A (0% ≤ substrate protein remaining % ≤ 80%) | B (80%< substrate protein remaining %≤ 100%) | 18 to 25 | 25 to 40 | B (80%< substrate protein remaining %≤ 100%) | 25 to 30 | 5 to 10 | B (80%< substrate protein remaining %≤ 100%) | B (80%< substrate protein remaining %≤ 100%) | 20 to 40 | 20 to 40 | B (80%< substrate protein remaining %≤ 100%) | 25 to 30 | 30 to 40
5 | O=C1CCN(N2Cc3cc(CN4CCC(c5ncnc6sc7c(c56)CCCC7)CC4)ccc3C2=O)C(=O)N1 [GT-08112, 1-(1-oxo-5-((4-(5,6,7,8-tetrahydrobenzo[4,5]thieno[2,3-d]pyrimidin-4-yl)piperidin-1-yl)methyl)isoindolin-2-yl)dihydropyrimidine-2,4(1H,3H)-dione] | A (0% ≤ substrate protein remaining % ≤ 80%) | B (80%< substrate protein remaining %≤ 100%) | 15 to 18 | 25 to 40 | B (80%< substrate protein remaining %≤ 100%) | – | – | B (80%< substrate protein remaining %≤ 100%) | B (80%< substrate protein remaining %≤ 100%) | 15 to 20 | 20 to 40 | B (80%< substrate protein remaining %≤ 100%) | 15 to 20 | 25 to 30
6 | O=C1CCN(N2Cc3cc(CN4CCC(c5ncnc6sc7c(c56)CCC7)CC4)ccc3C2=O)C(=O)N1 [GT-08113, 1-(5-((4-(6,7-dihydro-5H-cyclopenta[4,5]thieno[2,3-d]pyrimidin-4-yl)piperidin-1-yl)methyl)-1-oxoisoindolin-2-yl)dihydropyrimidine-2,4(1H,3H)-dione] | A (0% ≤ substrate protein remaining % ≤ 80%) | B (80%< substrate protein remaining %≤ 100%) | 25 to 40 | 40 to 60 | B (80%< substrate protein remaining %≤ 100%) | 30 to 40 | 10 to 18 | B (80%< substrate protein remaining %≤ 100%) | B (80%< substrate protein remaining %≤ 100%) | 20 to 40 | 20 to 40 | A (0% ≤ substrate protein remaining % ≤ 80%) | 20 to 25 | 25 to 30
7 | O=C1CCN(N2Cc3cc(CN4CCC(c5cccc(F)c5F)CC4)ccc3C2=O)C(=O)N1 [GT-08194, 1-(5-((4-(2,3-difluorophenyl)piperidin-1-yl)methyl)-1-oxoisoindolin-2-yl)dihydropyrimidine-2,4(1H,3H)-dione] | A (0% ≤ substrate protein remaining % ≤ 80%) | B (80%< substrate protein remaining %≤ 100%) | 18 to 25 | 25 to 40 | B (80%< substrate protein remaining %≤ 100%) | 18 to 25 | 60 to 80 | B (80%< substrate protein remaining %≤ 100%) | A (0% ≤ substrate protein remaining % ≤ 80%) | – | – | B (80%< substrate protein remaining %≤ 100%) | 20 to 25 | 20 to 25
